What is called inhibition is the share of the control response that was lost under treatment.

We go through two molecules from US6780866B2, “Analgesic composition and method” (priority 2001, dated 2004).

Assay [1] deals with heat-induced tail-flick (nociceptive pain). Further details: species or system Kunming mice. To be noted: mouse, in vivo. On the procedure: 320 screened mice, half male and half female, were randomly divided into 16 groups. They were not given food, only water 12 hours prior to dosing.
The heat tail flick analgesia meter includes a heat source consisting of a 12 V, 50 watt, 8.75 mm projector lamp. The light beam from the heat source was focused and directed to a point on the tail of a mouse being tested, having a distance of 1-2 mm plus ⅓ of the tail length to the tail end.
The test drugs were given intramuscularly. […] The tail-flick latencies, which were assessed in response to a noxious heat stimulus, i.e., the response time from applying radiant heat on the dorsal surface of the tail to the occurrence of tail flick, were measured and recorded at 15, 30, 45, 60, 90, 120, 150, 180 min. after dosing. For each measurement, three readings were made consecutively one minute apart, and their average was recorded as the latency. The testing on one animal would be terminated when tail-flick was not observed within 20 seconds, and the latency would be recorded as 20 seconds. The pain inhibition rate was calculated according to the following formula for the purpose of assessing the analgesia potency: […]
The results were processed with SPSS, a statistical software provided by SPSS, Inc. of Chicago, Ill., USA. Half effective dose (ED50) and half inhibition dose (ID50) were calculated with the probit method.

Assay [2] concerns formalin-induced inflammatory pain. Further details: species or system Wistar male rats. As to conditions: rat, in vivo.
For assay [3] the test system is unchanged. To be noted: rat, in vivo; cited from earlier work.
Another assay deals with pain. As to conditions: in vivo; cited from earlier work.

Molecules are shown by their SMILES. Where “and” joins values, the source holds several entries; their conditions need not be identical. Equal values may be shown once.

In assay [1], `CN1CC[C@]23c4c5ccc(O)c4O[C@H]2[C@@H](O)C=C[C@H]3[C@H]1C5.Cl` [Morphine, Morphine hydrochloride] had an ED95 of morphine of 0.77 and an ID50 of morphine of 0.33 mg/kg. In addition, in assay [2], the “ID50 of morphine” value is listed as 2.30 mg/kg.
As to `N=C1NC(O)C2C3OC4(O)OC(C(O)C2(N1)C4O)C3(O)CO` (stereo not drawn) [TTX, octahydro-12-(hydroxymethyl)-2-imino-5,9:7,10a-dimethano-10aH-[1,3]dioxocino[6,5-d]pyrimidine-4,7,10,11,12-pentol], in assay [3], the inhibition is given as 71.7%. Further, in assay [1] (3 mg/kg), the “Inhibition rate (%)” value was 5.44% and 12.06%; the Latency after dosing is 5.88 ± 1.00 and 6.04 ± 0.76. The “analgesic potency relative to morphine” value with pain is “about 3,000 times”. Besides, in assay [2] (3 mg/kg), the “Inhibition rate (%)” value was 32.9% and 11.6%; the Pain reaction score was 169.1 ± 47.2 and 223.0 ± 58.3.
